# Tested on: HepG2 cells
# Experiment: Quantification of the secretion of ApoB
# Assay type: cell-based
# Settings: Homo sapiens, HepG2, 24 h, 24 hours of incubation, pIC50 = -log IC50
# How it was run: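 At 70% confluency, HepG2 cells received compound (0.4% DMSO final) for 24 h. Secreted apoB in cleared medium was immunoprecipitated with sheep anti-apoB then rabbit anti-sheep antibody (24 h each at 8° C.), and pellet radioactivity was counted by scintillation. IC50 values were expressed as pIC50.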
row,Compound,IC50 [nM]
1,CCOC(=O)[C@]1(c2ccccc2)CC[C@@H](C(=O)N2CCC(NC(=O)c3ccccc3)CC2)c2ccccc21 (racemic) [Co. No. 25],15
2,C=CCOC(=O)[C@]1(c2ccccc2)CC[C@@H](C(=O)N2CCC(NC(=O)c3ccccc3)CC2)c2ccccc21 [Co. No. 13],28.8
3,Cn1cccc(C(=O)NC2CCN(C(=O)[C@H]3CC[C@@](C(=O)NCCCC(=O)OC(C)(C)C)(c4ccccc4)c4ccccc43)CC2)c1=O [Co. No. 226],> 1000
4,CC(C)OC(=O)CCCCCNC(=O)[C@@]1(c2ccccc2)CC[C@H](C(=O)N2CCC(NC(=O)c3cccn(C)c3=O)CC2)c2ccccc21 [Co. No. 229],> 1000
5,CCOC(=O)[C@H](CCCCNC(=O)OC(C)(C)C)NC(=O)[C@@]1(c2ccccc2)CC[C@H](C(=O)N2CCC(NC(=O)c3cccn(C)c3=O)CC2)c2ccccc21 [Co. No. 231],> 1000
6,CCOC(=O)NCCCC[C@H](NC(=O)[C@@]1(c2ccccc2)CC[C@H](C(=O)N2CCC(NC(=O)c3cccn(C)c3=O)CC2)c2ccccc21)C(=O)OC(C)C [Co. No. 233],> 1000
7,CC(C)OC(=O)NCCCC[C@H](NC(=O)[C@@]1(c2ccccc2)CC[C@H](C(=O)N2CCC(NC(=O)c3cccn(C)c3=O)CC2)c2ccccc21)C(=O)OC(C)C [Co. No. 235],> 1000
8,CCCOC(=O)CCCCCNC(=O)[C@@]1(c2ccccc2)CC[C@H](C(=O)N2CCC(NC(=O)c3ccccc3OC)CC2)c2ccccc21 [Co. No. 246],234
9,CCCOC(=O)CC[C@H](NC(=O)[C@@]1(c2ccccc2)CC[C@H](C(=O)N2CCC(NC(=O)c3ccccc3OC)CC2)c2ccccc21)C(=O)OCCC [Co. No. 247],382
10,COc1ccccc1C(=O)NC1CCN(C(=O)[C@H]2CC[C@@](C(=O)N[C@@H](CCC(=O)OC(C)C)C(=O)OC(C)C)(c3ccccc3)c3ccccc32)CC1 [Co. No. 248],184
11,CCCOC(=O)CCCNC(=O)[C@@]1(c2ccccc2)CC[C@H](C(=O)N2CCC(NC(=O)c3ccccc3OC)CC2)c2ccccc21 [Co. No. 249],586
12,COc1ccccc1C(=O)NC1CCN(C(=O)[C@H]2CC[C@@](C(=O)NCCCC(=O)OC(C)C)(c3ccccc3)c3ccccc32)CC1 [Co. No. 250],343
13,CCOC(=O)[C@]1(c2ccccc2)CC[C@@H](C(=O)N2CCC(NC(=O)c3ccccc3N3CCOCC3)CC2)c2ccccc21 [Co. No. 252],3.52
14,CCOC(=O)[C@@]1(c2ccccc2)CC[C@H](C(=O)N2CCC(NC(=O)c3cccnc3OC)CC2)c2ccccc21 [Co. No. 253],3.24
15,COC(=O)CCNC(=O)[C@@]1(c2ccccc2)CC[C@H](C(=O)N2CCC(NC(=O)c3cccnc3OC)CC2)c2ccccc21 [Co. No. 254],17.1
16,COC(=O)CCNC(=O)[C@@]1(c2ccccc2)CC[C@H](C(=O)N2CCC(NC(=O)c3cccnc3O)CC2)c2ccccc21 [Co. No. 255],> 1000

row,Compound,IC50 [nM]
1,COC(=O)CCNC(=O)[C@]1(c2ccccc2)CC[C@@H](C(=O)N2CCC(NC(=O)c3ccccc3OC)CC2)c2ccccc21 [Co. No. 256],> 1000
2,COc1ccccc1C(=O)NC1CCN(C(=O)[C@@H]2CC[C@](C(=O)NCCC(=O)OC(C)C)(c3ccccc3)c3ccccc32)CC1 [Co. No. 257],> 1000
3,COc1ncccc1C(=O)NC1CCN(C(=O)[C@H]2CC[C@@](C(=O)NCCC(=O)O)(c3ccccc3)c3ccccc32)CC1 [Co. No. 258],> 1000
4,CCCOC(=O)[C@]1(c2ccccc2)CC[C@@H](C(=O)N2CCC(NC(=O)c3ccccc3N3CCOCC3)CC2)c2ccccc21 [Co. No. 260],6.34
5,COc1ncccc1C(=O)NC1CCN(C(=O)[C@@H]2CC[C@](C(=O)NCCC(=O)OC(C)C)(c3ccccc3)c3ccccc32)CC1 [Co. No. 261],> 1000
6,COC(=O)CCNC(=O)[C@]1(c2ccccc2)CC[C@@H](C(=O)N2CCC(NC(=O)c3cccnc3OC)CC2)c2ccccc21 [Co. No. 262],> 1000
7,COC(=O)CCNC(=O)[C@]1(c2ccccc2)CC[C@@H](C(=O)N2CCC(NC(=O)c3ccccc3N3CCOCC3)CC2)c2ccccc21 [Co. No. 263],64.4
8,C=CCOC(=O)[C@@]1(c2ccccc2)CC[C@H](C(=O)N2CCC(NC(=O)c3cccnc3OC)CC2)c2ccccc21 [Co. No. 266],2.04
9,COC(=O)CCNC(=O)[C@@]1(c2ccccc2)CC[C@H](C(=O)N2CCC(NC(=O)c3ccccc3N3CCN(C)CC3)CC2)c2ccccc21 [Co. No. 272],670
10,CCOC(=O)[C@@]1(c2cccc(F)c2)CC[C@@H](C(=O)N2CCC(NC(=O)c3ccccc3OC)CC2)c2cc(F)ccc21 [Co. No. 273],1000
11,CCOC(=O)[C@@]1(c2ccccc2)CC[C@H](C(=O)N2CCC(NC(=O)c3cccnc3OC(C)C)CC2)c2ccccc21 [Co. No. 274],17.3
12,COc1ccccc1C(=O)NC1CCN(C(=O)[C@H]2CC[C@](C(=O)NCCC(=O)OC(C)C)(c3ccc(Br)cc3)c3cc(Br)ccc32)CC1 [Co. No. 275],> 1000
13,CC(C)OC(=O)CCNC(=O)[C@@]1(c2ccccc2)CC[C@H](C(=O)N2CCC(NC(=O)c3ccccc3N3CCN(C)CC3)CC2)c2ccccc21 [Co. No. 276],75.2
14,CC(C)OC(=O)CCNC(=O)[C@@]1(c2ccccc2)CC[C@H](C(=O)N2CCC(NC(=O)c3cccnc3N3CCN(C)CC3)CC2)c2ccccc21 [Co. No. 277],108
15,CCCOC(=O)CCNC(=O)[C@@]1(c2ccccc2)CC[C@H](C(=O)N2CCC(NC(=O)c3ccccc3OC)CC2)c2ccccc21 [Co. No. 279],14.1
16,COc1ncccc1C(=O)NC1CCN(C(=O)[C@H]2CC[C@@](C(=O)NCCC(=O)OC(C)C)(c3ccccc3)c3ccccc32)CC1 [Co. No. 280],3.82

# Molecular target: MTP (Homo sapiens, UniProt P55157)
# Sequence (P55157 19-894, species assumed): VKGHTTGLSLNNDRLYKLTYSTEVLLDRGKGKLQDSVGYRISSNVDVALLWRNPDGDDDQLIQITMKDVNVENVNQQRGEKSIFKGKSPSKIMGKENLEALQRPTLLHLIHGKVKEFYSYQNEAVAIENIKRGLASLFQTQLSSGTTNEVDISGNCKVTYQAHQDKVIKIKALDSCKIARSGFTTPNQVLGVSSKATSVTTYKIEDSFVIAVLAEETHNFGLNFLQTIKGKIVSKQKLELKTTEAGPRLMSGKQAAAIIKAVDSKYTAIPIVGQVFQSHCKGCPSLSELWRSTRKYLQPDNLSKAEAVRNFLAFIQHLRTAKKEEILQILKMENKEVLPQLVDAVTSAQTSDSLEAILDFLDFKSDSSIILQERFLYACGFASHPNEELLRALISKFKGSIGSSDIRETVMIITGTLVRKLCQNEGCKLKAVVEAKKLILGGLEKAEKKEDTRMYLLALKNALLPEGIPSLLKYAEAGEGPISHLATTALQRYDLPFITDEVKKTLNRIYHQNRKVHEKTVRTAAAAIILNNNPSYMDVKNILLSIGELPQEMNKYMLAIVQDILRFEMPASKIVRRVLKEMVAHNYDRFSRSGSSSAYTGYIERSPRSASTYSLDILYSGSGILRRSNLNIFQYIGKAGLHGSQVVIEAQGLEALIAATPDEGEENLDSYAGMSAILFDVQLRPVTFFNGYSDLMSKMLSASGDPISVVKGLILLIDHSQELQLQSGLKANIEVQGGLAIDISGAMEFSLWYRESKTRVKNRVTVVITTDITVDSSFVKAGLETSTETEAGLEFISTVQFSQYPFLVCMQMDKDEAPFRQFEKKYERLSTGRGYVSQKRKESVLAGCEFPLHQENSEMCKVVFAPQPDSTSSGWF
# Sequence (P07237 18-508 partner, species assumed): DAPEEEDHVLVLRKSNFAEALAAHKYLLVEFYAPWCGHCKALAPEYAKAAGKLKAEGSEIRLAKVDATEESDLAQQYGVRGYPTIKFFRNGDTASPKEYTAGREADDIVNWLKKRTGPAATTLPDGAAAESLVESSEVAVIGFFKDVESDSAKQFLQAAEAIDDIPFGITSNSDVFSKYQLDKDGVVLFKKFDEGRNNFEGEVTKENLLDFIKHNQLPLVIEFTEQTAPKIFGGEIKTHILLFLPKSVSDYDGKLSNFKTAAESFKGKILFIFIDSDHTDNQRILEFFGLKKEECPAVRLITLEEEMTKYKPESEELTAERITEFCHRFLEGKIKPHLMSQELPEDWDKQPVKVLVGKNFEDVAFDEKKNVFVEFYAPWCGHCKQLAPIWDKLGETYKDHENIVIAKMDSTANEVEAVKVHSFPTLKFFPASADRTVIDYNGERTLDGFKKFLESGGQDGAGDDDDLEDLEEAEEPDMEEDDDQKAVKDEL
# Experiment: MTP assay (triglyceride transfer from donor to acceptor vesicles)
# Assay type: biochemical
# Settings: MTP activity, percent triglyceride transfer from donor to acceptor vesicles, 37° C.
# How it was run: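 Radiolabelled triglyceride transfer from donor vesicles (phosphatidylcholine, 7.5 mol % cardiolipin, 0.25 mol % glycerol tri[1-^14C]-oleate) to phosphatidylcholine acceptor vesicles with BSA, pH 7.5 Tris buffer; compounds in DMSO (0.13% final), 5 min preincubation at 37° C before MTP addition. Donor vesicles removed on DEAE-52; acceptor-supernatant ^14C counts give percent transfer.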
row,Compound,IC50 [nM]
1,CCOC(=O)[C@]1(c2ccccc2)CC[C@@H](C(=O)N2CCC(NC(=O)c3ccccc3)CC2)c2ccccc21 (racemic) [Co. No. 25],3.85
2,C=CCOC(=O)[C@]1(c2ccccc2)CC[C@@H](C(=O)N2CCC(NC(=O)c3ccccc3)CC2)c2ccccc21 [Co. No. 13],6.05
3,Cn1cccc(C(=O)NC2CCN(C(=O)[C@H]3CC[C@@](C(=O)NCCCC(=O)OC(C)(C)C)(c4ccccc4)c4ccccc43)CC2)c1=O [Co. No. 226],111
4,CC(C)OC(=O)CCCCCNC(=O)[C@@]1(c2ccccc2)CC[C@H](C(=O)N2CCC(NC(=O)c3cccn(C)c3=O)CC2)c2ccccc21 [Co. No. 229],7.57
5,CCOC(=O)[C@H](CCCCNC(=O)OC(C)(C)C)NC(=O)[C@@]1(c2ccccc2)CC[C@H](C(=O)N2CCC(NC(=O)c3cccn(C)c3=O)CC2)c2ccccc21 [Co. No. 231],> 100
6,CCOC(=O)NCCCC[C@H](NC(=O)[C@@]1(c2ccccc2)CC[C@H](C(=O)N2CCC(NC(=O)c3cccn(C)c3=O)CC2)c2ccccc21)C(=O)OC(C)C [Co. No. 233],117
7,CC(C)OC(=O)NCCCC[C@H](NC(=O)[C@@]1(c2ccccc2)CC[C@H](C(=O)N2CCC(NC(=O)c3cccn(C)c3=O)CC2)c2ccccc21)C(=O)OC(C)C [Co. No. 235],109
8,CCCOC(=O)CCCCCNC(=O)[C@@]1(c2ccccc2)CC[C@H](C(=O)N2CCC(NC(=O)c3ccccc3OC)CC2)c2ccccc21 [Co. No. 246],3.87
9,CCCOC(=O)CC[C@H](NC(=O)[C@@]1(c2ccccc2)CC[C@H](C(=O)N2CCC(NC(=O)c3ccccc3OC)CC2)c2ccccc21)C(=O)OCCC [Co. No. 247],5.96
10,COc1ccccc1C(=O)NC1CCN(C(=O)[C@H]2CC[C@@](C(=O)N[C@@H](CCC(=O)OC(C)C)C(=O)OC(C)C)(c3ccccc3)c3ccccc32)CC1 [Co. No. 248],6.61
11,CCCOC(=O)CCCNC(=O)[C@@]1(c2ccccc2)CC[C@H](C(=O)N2CCC(NC(=O)c3ccccc3OC)CC2)c2ccccc21 [Co. No. 249],2.64
12,COc1ccccc1C(=O)NC1CCN(C(=O)[C@H]2CC[C@@](C(=O)NCCCC(=O)OC(C)C)(c3ccccc3)c3ccccc32)CC1 [Co. No. 250],1.79
13,CCOC(=O)[C@]1(c2ccccc2)CC[C@@H](C(=O)N2CCC(NC(=O)c3ccccc3N3CCOCC3)CC2)c2ccccc21 [Co. No. 252],2.49
14,CCOC(=O)[C@@]1(c2ccccc2)CC[C@H](C(=O)N2CCC(NC(=O)c3cccnc3OC)CC2)c2ccccc21 [Co. No. 253],0.984
15,COC(=O)CCNC(=O)[C@@]1(c2ccccc2)CC[C@H](C(=O)N2CCC(NC(=O)c3cccnc3OC)CC2)c2ccccc21 [Co. No. 254],3
16,COC(=O)CCNC(=O)[C@@]1(c2ccccc2)CC[C@H](C(=O)N2CCC(NC(=O)c3cccnc3O)CC2)c2ccccc21 [Co. No. 255],585

row,Compound,IC50 [nM]
1,COC(=O)CCNC(=O)[C@]1(c2ccccc2)CC[C@@H](C(=O)N2CCC(NC(=O)c3ccccc3OC)CC2)c2ccccc21 [Co. No. 256],> 1000
2,COc1ccccc1C(=O)NC1CCN(C(=O)[C@@H]2CC[C@](C(=O)NCCC(=O)OC(C)C)(c3ccccc3)c3ccccc32)CC1 [Co. No. 257],> 1000
3,COc1ncccc1C(=O)NC1CCN(C(=O)[C@H]2CC[C@@](C(=O)NCCC(=O)O)(c3ccccc3)c3ccccc32)CC1 [Co. No. 258],1800
4,CCCOC(=O)[C@]1(c2ccccc2)CC[C@@H](C(=O)N2CCC(NC(=O)c3ccccc3N3CCOCC3)CC2)c2ccccc21 [Co. No. 260],3.64
5,COc1ncccc1C(=O)NC1CCN(C(=O)[C@@H]2CC[C@](C(=O)NCCC(=O)OC(C)C)(c3ccccc3)c3ccccc32)CC1 [Co. No. 261],757
6,COC(=O)CCNC(=O)[C@]1(c2ccccc2)CC[C@@H](C(=O)N2CCC(NC(=O)c3cccnc3OC)CC2)c2ccccc21 [Co. No. 262],> 1000
7,COC(=O)CCNC(=O)[C@]1(c2ccccc2)CC[C@@H](C(=O)N2CCC(NC(=O)c3ccccc3N3CCOCC3)CC2)c2ccccc21 [Co. No. 263],15.7
8,C=CCOC(=O)[C@@]1(c2ccccc2)CC[C@H](C(=O)N2CCC(NC(=O)c3cccnc3OC)CC2)c2ccccc21 [Co. No. 266],0.966
9,COC(=O)CCNC(=O)[C@@]1(c2ccccc2)CC[C@H](C(=O)N2CCC(NC(=O)c3ccccc3N3CCN(C)CC3)CC2)c2ccccc21 [Co. No. 272],50.9
10,CCOC(=O)[C@@]1(c2cccc(F)c2)CC[C@@H](C(=O)N2CCC(NC(=O)c3ccccc3OC)CC2)c2cc(F)ccc21 [Co. No. 273],165
11,CCOC(=O)[C@@]1(c2ccccc2)CC[C@H](C(=O)N2CCC(NC(=O)c3cccnc3OC(C)C)CC2)c2ccccc21 [Co. No. 274],4.69
12,COc1ccccc1C(=O)NC1CCN(C(=O)[C@H]2CC[C@](C(=O)NCCC(=O)OC(C)C)(c3ccc(Br)cc3)c3cc(Br)ccc32)CC1 [Co. No. 275],> 1000
13,CC(C)OC(=O)CCNC(=O)[C@@]1(c2ccccc2)CC[C@H](C(=O)N2CCC(NC(=O)c3ccccc3N3CCN(C)CC3)CC2)c2ccccc21 [Co. No. 276],3.49
14,CC(C)OC(=O)CCNC(=O)[C@@]1(c2ccccc2)CC[C@H](C(=O)N2CCC(NC(=O)c3cccnc3N3CCN(C)CC3)CC2)c2ccccc21 [Co. No. 277],11.4
15,CCCOC(=O)CCNC(=O)[C@@]1(c2ccccc2)CC[C@H](C(=O)N2CCC(NC(=O)c3ccccc3OC)CC2)c2ccccc21 [Co. No. 279],1.5
16,COc1ncccc1C(=O)NC1CCN(C(=O)[C@H]2CC[C@@](C(=O)NCCC(=O)OC(C)C)(c3ccccc3)c3ccccc32)CC1 [Co. No. 280],0.82

# Tested on: not given
# Experiment: not given
# Settings: not given
row,Compound,melting point [°C]
1,CCOC(=O)[C@]1(c2ccccc2)CC[C@@H](C(=O)N2CCC(NC(=O)c3ccccc3)CC2)c2ccccc21 (racemic) [Co. No. 25],112 to 115
2,C=CCOC(=O)[C@]1(c2ccccc2)CC[C@@H](C(=O)N2CCC(NC(=O)c3ccccc3)CC2)c2ccccc21 [Co. No. 13],103 to 107

# Source: US8114880B2, “Piperidine or piperazine substituted tetrahydro-naphthalene-1-carboxylic acid MTP inhibiting compounds” (Janssen Pharmaceutica N.V., priority 2006, dated 2012)
